Test results as given in ChEMBL document CHEMBL3352542, “Synthesis, biological evaluation and molecular modeling study of 2-(1,3,4-thiadiazolyl-thio and 4-methyl-thiazolyl-thio)-quinazolin-4-ones as a new class of DHFR inhibitors” (Bioorg Med Chem Lett, 2014).
Calls of active or inactive are those of the source. The calls are words filed in the database; no cut-off is given here.

Columns and labels:
[1] = (§1) Growth inhibition of human SF295 cells at 10 uM after 48 hrs; type: functional; conditions: SF-295, 48 h, read-out: GI
NCI-H23 = assay: Growth inhibition of human NCI-H23 cells at 10 uM after 48 hrs; type: functional; conditions: NCI-H23, 48 h, read-out: GI
K562 = assay: Growth inhibition of human K562 cells at 10 uM after 48 hrs; type: functional
HL-60(TB) = assay: Growth inhibition of human HL-60(TB) cells at 10 uM after 48 hrs; type: functional
Staphylococcus aureus = assay: Antimicrobial activity against Staphylococcus aureus assessed as inhibition zone at 200 ug/disk after 24 hrs by disc-diffusion method; type: functional; conditions: read-out: IZ
Dihydrofolate reductase = biological target: T1, Dihydrofolate reductase (Bos taurus, UniProt P00376); assay: Inhibition of bovine liver DHFR
T1 sequence (P00376 whole entry): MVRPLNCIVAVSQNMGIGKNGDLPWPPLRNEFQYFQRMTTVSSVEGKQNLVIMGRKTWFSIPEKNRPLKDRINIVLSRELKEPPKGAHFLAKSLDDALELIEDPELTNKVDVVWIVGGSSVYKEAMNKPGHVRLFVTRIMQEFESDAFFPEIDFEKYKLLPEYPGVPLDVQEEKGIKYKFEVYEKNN

[2] = (§2) Growth inhibition of human PC3 cells at 10 uM after 48 hrs; type: functional; conditions: PC-3, 48 h, read-out: GI
[3] = (§3) Growth inhibition of human UACC62 cells at 10 uM after 48 hrs; type: functional; conditions: UACC-62, 48 h, read-out: GI
[4] = (§4) Growth inhibition of human UO31 cells at 10 uM after 48 hrs; type: functional; conditions: UO-31, 48 h, read-out: GI
Candida albicans = assay: Antimicrobial activity against Candida albicans assessed as inhibition zone at 200 ug/disk after 24 hrs by disc-diffusion method; type: functional; conditions: read-out: IZ
A498 = assay: Growth inhibition of human A498 cells at 10 uM after 48 hrs; type: functional
[5] = (§5) Growth inhibition of human RPMI8226 cells at 10 uM after 48 hrs; type: functional; conditions: RPMI-8226, 48 h, read-out: GI
Bacillus subtilis = assay: Antimicrobial activity against Bacillus subtilis assessed as inhibition zone at 200 ug/disk after 24 hrs by disc-diffusion method; type: functional; conditions: read-out: IZ
Malme-3M = assay: Growth inhibition of human MALME-3M cells at 10 uM after 48 hrs; type: functional
Pseudomonas aeruginosa = assay: Antimicrobial activity against Pseudomonas aeruginosa assessed as inhibition zone at 200 ug/disk after 24 hrs by disc-diffusion method; type: functional; conditions: read-out: IZ
Escherichia coli = assay: Antimicrobial activity against Escherichia coli assessed as inhibition zone at 200 ug/disk after 24 hrs by disc-diffusion method; type: functional; conditions: read-out: IZ
[6] = (§6) Growth inhibition of human MOLT4 cells at 10 uM after 48 hrs; type: functional; conditions: MOLT-4, 48 h, read-out: GI
SF-295 = assay: as §1; type: functional
NCI-H226 = assay: Growth inhibition of human NCI-H226 cells at 10 uM after 48 hrs; type: functional
786-0 = assay: Growth inhibition of human 786-0 cells at 10 uM after 48 hrs; type: functional
UACC-257 = assay: Growth inhibition of human UACC257 cells at 10 uM after 48 hrs; type: functional
SK-MEL-28 = assay: Growth inhibition of human SK-MEL-28 cells at 10 uM after 48 hrs; type: functional, cell-based
KM12 = assay: Growth inhibition of human KM12 cells at 10 uM after 48 hrs; type: functional
T47D = assay: Growth inhibition of human T47D cells at 10 uM after 48 hrs; type: functional
A549 = assay: Growth inhibition of human A549 cells at 10 uM after 48 hrs; type: functional
MDA-MB-231 = assay: Growth inhibition of human MDA-MB-231 cells at 10 uM after 48 hrs; type: functional
SR = assay: Growth inhibition of human SR cells at 10 uM after 48 hrs; type: functional
HOP-62 = assay: Growth inhibition of human HOP62 cells at 10 uM after 48 hrs; type: functional
NCI-H522 = assay: Growth inhibition of human NCI-H522 cells at 10 uM after 48 hrs; type: functional
CCRF-CEM = assay: Growth inhibition of human CCRF-CEM cells at 10 uM after 48 hrs; type: functional
MDA-MB-468 = assay: Growth inhibition of human MDA-MB-468 cells at 10 uM after 48 hrs; type: functional
PC-3 = assay: as §2; type: functional
UACC-62 = assay: as §3; type: functional
OVCAR-4 = assay: Growth inhibition of human OVCAR4 cells at 10 uM after 48 hrs; type: functional
HCT-116 = assay: Growth inhibition of human HCT116 cells at 10 uM after 48 hrs; type: functional
UO-31 = assay: as §4; type: functional
SK-MEL-5 = assay: Growth inhibition of human SK-MEL-5 cells at 10 uM after 48 hrs; type: functional
HOP-92 = assay: Growth inhibition of human HOP92 cells at 10 uM after 48 hrs; type: functional
SF-539 = assay: Growth inhibition of human SF539 cells at 10 uM after 48 hrs; type: functional
RPMI-8226 = assay: as §5; type: functional
SNB-19 = assay: Growth inhibition of human SNB19 cells at 10 uM after 48 hrs; type: functional
HCT-15 = assay: Growth inhibition of human HCT15 cells at 10 uM after 48 hrs; type: functional
U-251 = assay: Growth inhibition of human U251 cells at 10 uM after 48 hrs; type: functional
CAKI-1 = assay: Growth inhibition of human CAKI-1 cells at 10 uM after 48 hrs; type: functional
Hs-578T = assay: Growth inhibition of human Hs 578T cells at 10 uM after 48 hrs; type: functional
RXF 393 = assay: Growth inhibition of human RXF393 cells at 10 uM after 48 hrs; type: functional
HT-29 = assay: Growth inhibition of human HT-29 cells at 10 uM after 48 hrs; type: functional
MOLT-4 = assay: as §6; type: functional
MDA-MB-435 = assay: Growth inhibition of human MDA-MB-435 cells at 10 uM after 48 hrs; type: functional
MCF7 = assay: Growth inhibition of human MCF7 cells at 10 uM after 48 hrs; type: functional

SMILES: Nc1nnc(Sc2nc3ccc(Cl)cc3c(=O)n2Cc2ccccc2)s1
- inhibition of growth at 10 µM [1]: 13.5%
- inhibition of growth at 10 µM (NCI-H23): 10.3%
- inhibition of growth at 10 µM (K562; K562, 48 h, read-out: GI): 24.8%
- inhibition of growth at 10 µM (HL-60(TB); HL-60, 48 h, read-out: GI): 24.3%
- zone of inhibition at 200 µg/disc (Staphylococcus aureus): 8 mm
- IC50 (Dihydrofolate reductase): 8 µM
- inhibition of growth at 10 µM [2]: 12.8%
- inhibition of growth at 10 µM [3]: 17.5%
- inhibition of growth at 10 µM [4]: 27.2%
- zone of inhibition at 200 µg/disc (Candida albicans): 8 mm
- inhibition of growth at 10 µM (A498; A498, 48 h, read-out: GI): 25.9%
- inhibition of growth at 10 µM [5]: 17.3%
- zone of inhibition at 200 µg/disc (Bacillus subtilis): 8 mm
- inhibition of growth at 10 µM (Malme-3M; read-out: GI): 19.2%
- zone of inhibition at 200 µg/disc (Pseudomonas aeruginosa): 8 mm
- zone of inhibition at 200 µg/disc (Escherichia coli): 12 mm
- inhibition of growth at 10 µM [6]: 16.8%

SMILES: COc1ccc(-n2c(Sc3nnc(N)s3)nc3ccc(C)cc3c2=O)cc1
- growth inhibition (GI) (SF-295): inactive
- growth inhibition (GI) (NCI-H226): inactive
- growth inhibition (GI) (786-0): inactive
- growth inhibition (GI) (UACC-257): inactive
- growth inhibition (GI) (SK-MEL-28): inactive
- growth inhibition (GI) (KM12): inactive
- growth inhibition (GI) (T47D): inactive
- growth inhibition (GI) (A549): inactive
- growth inhibition (GI) (MDA-MB-231): inactive
- growth inhibition (GI) (K562): inactive
- growth inhibition (GI) (HL-60(TB)): inactive
- growth inhibition (GI) (SR): inactive
- growth inhibition (GI) (HOP-62): inactive
- zone of inhibition at 200 µg/disc (Staphylococcus aureus): 8 mm
- growth inhibition (GI) (NCI-H522): inactive
- growth inhibition (GI) (CCRF-CEM): inactive
- growth inhibition (GI) (MDA-MB-468): inactive
- IC50 (Dihydrofolate reductase): 3 µM
- growth inhibition (GI) (PC-3): inactive
- growth inhibition (GI) (UACC-62): inactive
- growth inhibition (GI) (OVCAR-4): inactive
- growth inhibition (GI) (HCT-116): inactive
- growth inhibition (GI) (UO-31): inactive
- growth inhibition (GI) (SK-MEL-5): inactive
- growth inhibition (GI) (HOP-92): inactive
- zone of inhibition at 200 µg/disc (Candida albicans): 8 mm
- growth inhibition (GI) (A498): inactive
- growth inhibition (GI) (SF-539): inactive
- growth inhibition (GI) (RPMI-8226): inactive
- growth inhibition (GI) (SNB-19): inactive
- growth inhibition (GI) (HCT-15): inactive
- growth inhibition (GI) (U-251): inactive
- growth inhibition (GI) (CAKI-1): inactive
- growth inhibition (GI) (Hs-578T): inactive
- growth inhibition (GI) (RXF 393): inactive
- zone of inhibition at 200 µg/disc (Bacillus subtilis): 8 mm
- growth inhibition (GI) (HT-29): inactive
- growth inhibition (GI) (Malme-3M): inactive
- zone of inhibition at 200 µg/disc (Pseudomonas aeruginosa): 8 mm
- zone of inhibition at 200 µg/disc (Escherichia coli): 8 mm
- growth inhibition (GI) (MOLT-4): inactive
- growth inhibition (GI) (MDA-MB-435): inactive
- growth inhibition (GI) (MCF7): inactive

SMILES: Cc1ccc2nc(Sc3nnc(N)s3)n(-c3ccccc3)c(=O)c2c1
- growth inhibition (GI) (SF-295): inactive
- growth inhibition (GI) (NCI-H226): inactive
- growth inhibition (GI) (786-0): inactive
- growth inhibition (GI) (UACC-257): inactive
- growth inhibition (GI) (SK-MEL-28): inactive
- growth inhibition (GI) (KM12): inactive
- growth inhibition (GI) (T47D): inactive
- growth inhibition (GI) (A549): inactive
- growth inhibition (GI) (MDA-MB-231): inactive
- growth inhibition (GI) (K562): inactive
- growth inhibition (GI) (HL-60(TB)): inactive
- growth inhibition (GI) (SR): inactive
- growth inhibition (GI) (HOP-62): inactive
- zone of inhibition at 200 µg/disc (Staphylococcus aureus): 8 mm
- growth inhibition (GI) (NCI-H522): inactive
- growth inhibition (GI) (CCRF-CEM): inactive
- growth inhibition (GI) (MDA-MB-468): inactive
- IC50 (Dihydrofolate reductase): 7 µM
- growth inhibition (GI) (PC-3): inactive
- growth inhibition (GI) (UACC-62): inactive
- growth inhibition (GI) (OVCAR-4): inactive
- growth inhibition (GI) (HCT-116): inactive
- growth inhibition (GI) (UO-31): inactive
- growth inhibition (GI) (SK-MEL-5): inactive
- growth inhibition (GI) (HOP-92): inactive
- zone of inhibition at 200 µg/disc (Candida albicans): 8 mm
- growth inhibition (GI) (A498): inactive
- growth inhibition (GI) (SF-539): inactive
- growth inhibition (GI) (RPMI-8226): inactive
- growth inhibition (GI) (SNB-19): inactive
- growth inhibition (GI) (HCT-15): inactive
- growth inhibition (GI) (U-251): inactive
- growth inhibition (GI) (CAKI-1): inactive
- growth inhibition (GI) (Hs-578T): inactive
- growth inhibition (GI) (RXF 393): inactive
- zone of inhibition at 200 µg/disc (Bacillus subtilis): 8 mm
- growth inhibition (GI) (HT-29): inactive
- growth inhibition (GI) (Malme-3M): inactive
- zone of inhibition at 200 µg/disc (Pseudomonas aeruginosa): 8 mm
- zone of inhibition at 200 µg/disc (Escherichia coli): 8 mm
- growth inhibition (GI) (MOLT-4): inactive
- growth inhibition (GI) (MDA-MB-435): inactive
- growth inhibition (GI) (MCF7): inactive
